US20190046556A1, “Methods and Pharmaceutical Compositions for the Prophylactic Treatment of Peritoneal Carcinomatosis” (INSERM (Institut National de la Sante et de la Recherche …, priority 2016, published 2019)

Test system: OVCAR
Assay type: in vivo
Settings: 21 days, nude mice
From the text: For that experiment, a human ovarian cancer cell line, named OVCAR is used, as prior exposed for the CT-26 cells. The only difference is the mice receiving cell injection, because OVACR is a human cancer cell, a nude mice animal is used because of immune deficiency of the animal.

O=C1[O][Pt]2([NH][C@@H]3CCCC[C@H]3[NH]2)[O]C1=O [Oxaliplatin]
Mean PCI (peritoneal cancer index): 3,7
